PubChem BioAssay AID216 (DTP/NCI, 2004)
Where “and” joins values, the source holds several entries; their conditions need not be identical. Identical values can stand only once. Inconclusive results and toxic doses are left out.

System: BDF1 mice, P288 leukemia ip, survival T/C
Assay: NCI In Vivo Anticancer Drug Screen. Data for tumor model P288 Lymphocytic Leukemia (intraperitoneal) in B6D2F1 (BDF1) mice
Settings: endpoint: survival time, mean or median, higher = longer survival
Procedure: The antitumor activity of compounds was measured in mice bearing transplantable tumors. Survival or tumor size were measured and the results are expressed as the measurement made in the treated group (T) divided by the measurement made in the vehicle treated control group (C). The tumor model used in this assay is P288 Lymphocytic Leukemia (intraperitoneal) in B6D2F1 (BDF1) mice

[1] = dose: 3.1 mg/kg/injection, schedule: Q01DX Z (ip), vehicle: carboxymethylcellulose (CMC)
[2] = dose: 20.0 mg/kg/injection, schedule: Q01DX010 (ip), vehicle: saline
[3] = dose: 40.0 mg/kg/injection, schedule: Q01DX010 (ip), vehicle: saline
[4] = dose: 6.25 mg/kg/injection, schedule: Q01DX Z (ip), vehicle: carboxymethylcellulose (CMC)
[5] = dose: 12.5 mg/kg/injection, schedule: Q01DX Z (ip), vehicle: carboxymethylcellulose (CMC)
[6] = dose: 25.0 mg/kg/injection, schedule: Q01DX010 (ip), vehicle: saline
[7] = dose: 25.0 mg/kg/injection, schedule: Q01DX Z (ip), vehicle: carboxymethylcellulose (CMC)
[8] = dose: 50.0 mg/kg/injection, schedule: Q01DX010 (ip), vehicle: saline
[9] = dose: 50.0 mg/kg/injection, schedule: Q01DX Z (ip), vehicle: carboxymethylcellulose (CMC)
[10] = dose: 100.0 mg/kg/injection, schedule: Q01DX010 (ip), vehicle: saline
[11] = dose: 200.0 mg/kg/injection, schedule: Q01DX010 (ip), vehicle: saline
[12] = dose: 31.3 mg/kg/injection, schedule: Q01DX010 (ip), vehicle: saline
[13] = dose: 2.0 mg/kg/injection, schedule: Q01DX010 (ip), vehicle: saline
[14] = dose: 4.0 mg/kg/injection, schedule: Q01DX010 (ip), vehicle: saline

Compound: O=P1(N(CCCl)CCCl)NCCCO1 (centres undefined)
- T/C (dose: 11.3 mg/kg/injection, schedule: Q01DX010 (ip), vehicle: saline): 119 % of control
- T/C (dose: 12.5 mg/kg/injection, schedule: Q01DX Z (ip), vehicle: saline): 102 % of control and 106 % of control
- T/C (dose: 25.0 mg/kg/injection, schedule: Q01DX Z (ip), vehicle: saline): 113 % of control and 116 % of control
- T/C (dose: 45.0 mg/kg/injection, schedule: Q01DX010 (ip), vehicle: saline): 150 % of control and 198 % of control
- T/C (dose: 50.0 mg/kg/injection, schedule: Q01DX Z (ip), vehicle: saline): 112 % of control and 113 % of control
- T/C (dose: 62.5 mg/kg/injection, schedule: Q01DX Z (ip), vehicle: saline): 124 % of control
- T/C (dose: 90.0 mg/kg/injection, schedule: Q01DX010 (ip), vehicle: saline): 158 % of control
- T/C (dose: 100.0 mg/kg/injection, schedule: Q01DX Z (ip), vehicle: saline): 152 % of control
- T/C (dose: 125.0 mg/kg/injection, schedule: Q01DX Z (ip), vehicle: saline): 113 % of control
- T/C (dose: 180.0 mg/kg/injection, schedule: Q01DX010 (ip), vehicle: saline): 91 % of control
- T/C (dose: 200.0 mg/kg/injection, schedule: Q01DX Z (ip), vehicle: saline): 86 % of control and 95 % of control

Compound: Cn1c(N)nc2nc[nH]c2c1=S
- T/C [1]: 90 % of control
- T/C (dose: 10.0 mg/kg/injection, schedule: Q01DX010 (ip), vehicle: saline): 100 % of control
- T/C [2]: 100 % of control
- T/C [3]: 100 % of control
- T/C (dose: 80.0 mg/kg/injection, schedule: Q01DX010 (ip), vehicle: saline): 106 % of control

Compound: C[C@]12CC[C@H](OC3OC(CO)C(O)C(O)C3O)C[C@H]1CC[C@@H]1[C@@H]2CC[C@]2(C)[C@@H](C3=CCOC3=O)CC[C@]12O (some centres undefined)
- T/C (dose: 0.12 mg/kg/injection, schedule: Q01DX Z (ip), vehicle: saline): 97 % of control
- T/C (dose: 0.25 mg/kg/injection, schedule: Q01DX Z (ip), vehicle: saline): 97 % of control
- T/C (dose: 0.5 mg/kg/injection, schedule: Q01DX Z (ip), vehicle: saline): 101 % of control and 98 % of control
- T/C (dose: 1.0 mg/kg/injection, schedule: Q01DX Z (ip), vehicle: saline): 104 % of control and 110 % of control
- T/C (dose: 2.0 mg/kg/injection, schedule: Q01DX Z (ip), vehicle: saline): 105 % of control and 107 % of control
- T/C (dose: 4.0 mg/kg/injection, schedule: Q01DX Z (ip), vehicle: saline): 121 % of control and 94 % of control

Compound: CSc1ncnc2nc[nH]c12
- T/C [4]: 105 % of control
- T/C [5]: 101 % of control
- T/C [6]: 90 % of control
- T/C [7]: 101 % of control
- T/C [8]: 86 % of control and 90 % of control
- T/C [9]: 113 % of control and 88 % of control
- T/C [10]: 100 % of control
- T/C [11]: 90 % of control and 100 % of control

Compound: CCOC(=O)c1[nH]c2ccccc2c1CN(CCCl)CCCl
- T/C [2]: 95 % of control
- T/C [3]: 100 % of control

Compound: CCCSc1ncnc2nc[nH]c12
- T/C [4]: 113 % of control
- T/C [5]: 105 % of control
- T/C [12]: 88 % of control
- T/C [9]: 115 % of control
- T/C (dose: 62.5 mg/kg/injection, schedule: Q01DX010 (ip), vehicle: saline): 94 % of control
- T/C (dose: 125.0 mg/kg/injection, schedule: Q01DX010 (ip), vehicle: saline): 88 % of control

Compound: COc1ccc2c(c1OC)C(=O)O[C@@H]2[C@H]1c2c(cc3c(c2OC)OCO3)CCN1C
- T/C (dose: 3.9 mg/kg/injection, schedule: Q01DX010 (ip), vehicle: saline): 112 % of control
- T/C (dose: 7.8 mg/kg/injection, schedule: Q01DX010 (ip), vehicle: saline): 112 % of control
- T/C [12]: 106 % of control

Compound: CN(C)/N=N/c1nc[nH]c1C(N)=O
- T/C [6]: 100 % of control
- T/C [8]: 88 % of control
- T/C [10]: 94 % of control and 100 % of control
- T/C [11]: 100 % of control

Compound: C=CC(CN1CC1)OC(C)=O (centres undefined)
- T/C (dose: 0.47 mg/kg/injection, schedule: Q01DX Z (ip), vehicle: carboxymethylcellulose (CMC)): 109 % of control
- T/C (dose: 0.95 mg/kg/injection, schedule: Q01DX Z (ip), vehicle: carboxymethylcellulose (CMC)): 101 % of control
- T/C (dose: 1.9 mg/kg/injection, schedule: Q01DX Z (ip), vehicle: carboxymethylcellulose (CMC)): 115 % of control and 90 % of control
- T/C [13]: 94 % of control
- T/C (dose: 3.8 mg/kg/injection, schedule: Q01DX Z (ip), vehicle: carboxymethylcellulose (CMC)): 108 % of control
- T/C [14]: 94 % of control
- T/C (dose: 8.0 mg/kg/injection, schedule: Q01DX010 (ip), vehicle: saline): 115 % of control
- T/C (dose: 16.0 mg/kg/injection, schedule: Q01DX010 (ip), vehicle: saline): 115 % of control

Compound: COc1cc2c(c(OC)c1OC)-c1ccc(N)c(=O)cc1[C@@H](NC(C)=O)CC2
- T/C (dose: 0.5 mg/kg/injection, schedule: Q01DX010 (ip), vehicle: saline): 157 % of control
- T/C (dose: 1.0 mg/kg/injection, schedule: Q01DX010 (ip), vehicle: saline): 164 % of control and 214 % of control
- T/C [13]: 176 % of control and 242 % of control
- T/C [14]: 100 % of control

Compound: COS(C)(=O)=O
- T/C (dose: 12.5 mg/kg/injection, schedule: Q01DX010 (ip), vehicle: saline): 100 % of control
- T/C (dose: 12.5 mg/kg/injection, schedule: Q01DX Z (ip), vehicle: water): 109 % of control
- T/C [6]: 100 % of control
- T/C (dose: 25.0 mg/kg/injection, schedule: Q01DX Z (ip), vehicle: water): 103 % of control
- T/C [8]: 87 % of control
- T/C [10]: 106 % of control
- T/C (dose: 100.0 mg/kg/injection, schedule: Q01DX Z (ip), vehicle: water): 97 % of control

Compound: CO[C@@H]1[C@@H](OC2OC(C)C(OC3CC(C)(O)C(OC(=O)CC(C)C)C(C)O3)C(N(C)C)C2O)[C@@H](CC=O)C[C@@H](C)C(=O)/C=C/C2O[C@H]2C[C@@H](C)OC(=O)C[C@H]1OC(C)=O (some centres undefined)
- T/C (dose: 37.5 mg/kg/injection, schedule: Q01DX010 (ip), vehicle: saline): 94 % of control
- T/C [8]: 112 % of control
- T/C (dose: 75.0 mg/kg/injection, schedule: Q01DX010 (ip), vehicle: saline): 88 % of control
- T/C [10]: 162 % of control
- T/C (dose: 150.0 mg/kg/injection, schedule: Q01DX010 (ip), vehicle: saline): 88 % of control
- T/C [11]: 168 % of control
- T/C (dose: 300.0 mg/kg/injection, schedule: Q01DX010 (ip), vehicle: saline): 100 % of control

Compound: C[C@@H]1C[C@H]2CC[C@H](O2)[C@H](C)C(=O)O[C@@H](C)C[C@@H]2CC[C@@H](O2)[C@@H](C)C(=O)O[C@H](C)C[C@H]2CC[C@H](O2)[C@H](C)C(=O)O[C@@H](C)C[C@@H]2CC[C@@H](O2)[C@@H](C)C(=O)O1
- T/C [7]: 98 % of control
- T/C [9]: 96 % of control
- T/C (dose: 100.0 mg/kg/injection, schedule: Q01DX Z (ip), vehicle: carboxymethylcellulose (CMC)): 120 % of control
- T/C (dose: 200.0 mg/kg/injection, schedule: Q01DX Z (ip), vehicle: carboxymethylcellulose (CMC)): 111 % of control

Compound: CSc1ncnc2c1ncn2C1OC(CO)C(O)C1O (centres undefined)
- T/C [1]: 101 % of control
- T/C (dose: 6.3 mg/kg/injection, schedule: Q01DX Z (ip), vehicle: carboxymethylcellulose (CMC)): 124 % of control
- T/C [5]: 118 % of control

Compound: N#CCSc1ncnc2nc[nH]c12
- T/C [5]: 97 % of control
- T/C [7]: 95 % of control
- T/C (dose: 30.0 mg/kg/injection, schedule: Q01DX010 (ip), vehicle: saline): 94 % of control
- T/C [9]: 114 % of control and 95 % of control
- T/C (dose: 60.0 mg/kg/injection, schedule: Q01DX010 (ip), vehicle: saline): 88 % of control
- T/C (dose: 120.0 mg/kg/injection, schedule: Q01DX010 (ip), vehicle: saline): 100 % of control
